Structures are written as SMILES.

The target in the test is PD-1/PD-L1 (Homo sapiens, UniProt Q9NZQ7). The experiment in a line: PD-1/PD-L1 biochemical protein-protein interaction assay (ALPHA). It counts as binding. As to conditions: 5 nM His tagged PD-L1, 5 nM biotinylated PD-1, 2 hours at 25° C.; read-out: ALPHA-LISA IC50. Here is the method: Compounds were tested in protein-protein interaction assay to determine if they can specifically block the interaction between the extracellular domains of PD-1/PD-L1. Binding of the protein pairs is measured using a bead based amplified luminescent proximity homogeneous assay (ALPHA) platform. Binding of each protein pair results in proximity of the donor and acceptor beads which leads to an increase in ALPHA signal. Assays are performed in 50 mM Tris (pH 7.4), 0.0015% Triton X-100, 0.1% BSA. Final protein concentration in the assays were 5 nM (His tagged PD-L1), 5 nM (biotinylated PD-1), 10 μg/ml ALPHA assay acceptor beads, 10 μg/ml ALPHA assay donor beads. After an assay reaction time of 2 hours at 25° C., binding was measured. The specificity of the binding was determined by testing the compounds in an assay with an irrelevant protein that is both His tagged and biotinylated. The final protein concentration used in the assay was 5 nM, 10 μg/ml ALPHA assay acceptor beads, 10 μg/ml ALPHA assay donor beads. After an assay reaction time of 2 hours at 25° C., binding was measured. IC50 values were calculated from the fit of the dose-response curves to a four-parameter equation.
PD-1/PD-L1, sequence (Q9NZQ7 19-238 limits assumed): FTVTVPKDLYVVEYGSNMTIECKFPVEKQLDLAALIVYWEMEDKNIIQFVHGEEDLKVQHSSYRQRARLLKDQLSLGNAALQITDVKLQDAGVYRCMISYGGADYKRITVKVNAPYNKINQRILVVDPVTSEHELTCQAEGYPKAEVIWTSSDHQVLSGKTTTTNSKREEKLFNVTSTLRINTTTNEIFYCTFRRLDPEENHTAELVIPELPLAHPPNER
The specificity of the binding was determined by testing the compounds in an assay with an irrelevant protein that is both His tagged and biotinylated (ErbB3/her3). The final protein concentration used in the assay was 5 nM, 10 μg/mL ALPHA assay acceptor beads, 10 μg/mL ALPHA assay donor beads. After an assay reaction time of 2 hours at 25° C., binding was measured. IC50 values were calculated from the fit of the dose-response curves to a four-parameter equation.
For the compound `Cc1cc(CN[C@H](CO)C(=O)O)c(OCc2cccc(C#N)c2)cc1OCc1cccn(-c2ccc3c(c2)OCCO3)c1=O` [Compound 7, (2-((3-cyanobenzyl)oxy)-4-((1-(2,3-dihydrobenzo[b][1,4]dioxin-6-yl)-2-oxo-1,2-dihydropyridin-3-yl)methoxy)-5-methylbenzyl)-D-serine], the 50% inhibitory concentration (IC50) was found to be 1100 nM.
For `Cc1cc(CN2C[C@H](O)C[C@@H]2C(=O)O)c(OCc2cccc(C#N)c2)cc1OCc1cccn(-c2ccc3c(c2)OCCO3)c1=O` [Compound 8, (2R,4R)-1-(2-((3-cyanobenzyl)oxy)-4-((1-(2,3-dihydrobenzo[b][1,4]dioxin-6-yl)-2-oxo-1,2-dihydropyridin-3-yl)methoxy)-5-methylbenzyl)-4-hydroxypyrrolidine-2-carboxylic acid] the value was 3400 nM.
The same measure for `Cc1cc(CN[C@](C)(CO)C(=O)O)c(OCc2cccc(C#N)c2)cc1OCc1cccn(-c2ccc3c(c2)OCCO3)c1=O` [Compound 9, (R)-2-((2-((3-cyanobenzyl)oxy)-4-((1-(2,3-dihydrobenzo[b][1,4]dioxin-6-yl)-2-oxo-1,2-dihydropyridin-3-yl)methoxy)-5-methylbenzyl)amino)-3-hydroxy-2-methylpropanoic acid]: 1200 nM; for `Cc1cc(CN[C@@H](CO)C(=O)O)c(OCc2cccc(C#N)c2)cc1OCc1cccn(-c2ccc3c(c2)OCCO3)c1=O` [Compound 10, (2-((3-cyanobenzyl)oxy)-4-((1-(2,3-dihydrobenzo[b][1,4]dioxin-6-yl)-2-oxo-1,2-dihydropyridin-3-yl)methoxy)-5-methylbenzyl)-L-serine]: 1200 nM.
With `Cc1cc(CN[C@@H](C)C(=O)O)c(OCc2cccc(C#N)c2)cc1OCc1cccn(-c2ccc3c(c2)OCCO3)c1=O` [Compound 11], the half-inhibitory concentration (IC50) was determined as 3900 nM.
The same measure for `Cc1cc(CN(C)[C@@H](CO)C(=O)O)c(OCc2cccc(C#N)c2)cc1OCc1cccn(-c2ccc3c(c2)OCCO3)c1=O` [Compound 12]: 1600 nM; for `Cc1cc(CN[C@H](CO)C(=O)O)c(OCc2cccc(Cl)c2)cc1OCc1cccn(-c2ccc3c(c2)OCCO3)c1=O` [Compound 101, (2-((3-chlorobenzyl)oxy)-4-((1-(2,3-dihydrobenzo[b][1,4]dioxin-6-yl)-2-oxo-1,2-dihydropyridin-3-yl)methoxy)-5-methylbenzyl)-D-serine]: 3000 nM.
The same measure for `Cc1cc(CN[C@H](CO)C(=O)O)c(OCc2cccnc2)cc1OCc1cccn(-c2ccc3c(c2)OCCO3)c1=O` [Compound 103, (4-((1-(2,3-dihydrobenzo[b][1,4]dioxin-6-yl)-2-oxo-1,2-dihydropyridin-3-yl)methoxy)-5-methyl-2-(pyridin-3-ylmethoxy)benzyl)-D-serine]: 1000 nM; for `N#Cc1cccc(COc2cc(OCc3cccn(-c4ccc5c(c4)OCCO5)c3=O)c(Cl)cc2CN[C@H](CO)C(=O)O)c1` [Compound 202, (5-chloro-2-((3-cyanobenzyl)oxy)-4-((1-(2,3-dihydrobenzo[b][1,4]dioxin-6-yl)-2-oxo-1,2-dihydropyridin-3-yl)methoxy)benzyl)-D-serine]: 300 nM; for `CCc1cc(CN[C@H](CO)C(=O)O)c(OCc2cccc(C#N)c2)cc1OCc1cccn(-c2ccc3c(c2)OCCO3)c1=O` [Compound 203]: 2700 nM.
On to `CC(C)c1cc(CN[C@H](CO)C(=O)O)c(OCc2cccc(C#N)c2)cc1OCc1cccn(-c2ccc3c(c2)OCCO3)c1=O` [Compound 204], for which the IC50 amounted to 3600 nM.
With `N#Cc1cccc(COc2cc(OCc3cccn(-c4ccc5c(c4)OCCO5)c3=O)c(Cl)cc2CNC[C@@H]2CCC(=O)N2)c1` [Compound 205, (S)-3-((4-chloro-5-((1-(2,3-dihydrobenzo[b][1,4]dioxin-6-yl)-2-oxo-1,2-dihydropyridin-3-yl)methoxy)-2-((((5-oxopyrrolidin-2-yl)methyl)amino)methyl)phenoxy)methyl)benzonitrile], the IC50 was determined as 360 nM.
The same measure for `N#Cc1cncc(COc2cc(OCc3cccn(-c4ccc5c(c4)OCCO5)c3=O)c(Cl)cc2CN[C@H](CO)C(=O)O)c1` [Compound 207, (5-chloro-2-((5-cyanopyridin-3-yl)methoxy)-4-((1-(2,3-dihydrobenzo[b][1,4]dioxin-6-yl)-2-oxo-1,2-dihydropyridin-3-yl)methoxy)benzyl)-D-serine]: 320 nM; for `O=C(O)[C@@H](CO)NCc1cc(Cl)c(OCc2cccn(-c3ccc4c(c3)OCCO4)c2=O)cc1OCc1cncc(-n2ccnn2)c1` [Compound 209]: 550 nM.

Usually IC50 stands for the concentration that inhibits the measured activity by half.
